Several values for one entry are separate records, joined by “and”; a condition that tells them apart may be missing. Equal entries are not always repeated.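 Interpolation was linear, between the two tested concentrations surrounding the appropriate level; five concentrations were tested over 48 hours in 96-well plates. Abbreviation: GI50, concentration required for 50% inhibition of growth. TGI: total growth inhibition.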

This note sets out measurements from PubChem BioAssay (NCI).

Among the test systems are SNB-19 CNS; UACC-62 melanoma; BT-549 breast; NCI/ADR-RES ovarian; NCI-H522 lung; MOLT-4 leukemia; HCT-116 colon; U251 CNS; IGROV1 ovarian; SF-268 CNS.
Experiment in all cases: growth of human tumour cells (NCI), 48 h

With `COC(C(=O)C(O)C(C)O)C1Cc2cc3cc(OC4CC(OC(C)=O)C(OC5CC(O)C(OC)C(C)O5)C(C)O4)cc(O)c3c(O)c2C(=O)C1OC1CC(OC2CC(OC3CC(C)(O)C(OC(=O)C(C)C)C(C)O3)C(O)C(C)O2)C(O)C(C)O1` (centres undefined), the GI50 in the assay on SNB-19 CNS is 0.0897 µM and 0.01 µM; with UACC-62 melanoma, 0.00129 µM; in the assay on NCI-H522 lung, 0.000196 µM. For the same compound, the TGI with SNB-19 CNS was 53.9 µM and > 100 µM; in the assay with BT-549 breast, 0.0444 µM; in the assay with NCI/ADR-RES ovarian, 63.7 µM and > 100 µM; in the assay with MOLT-4 leukemia, 0.306 µM and 0.147 µM.
For `COc1ccc2c(c1)c(-c1nc(-c3c[nH]c4ncccc34)cs1)cn2CCCCN1CCOCC1`, the GI50 in the assay with HCT-116 colon is 1.78 µM; in the assay on UACC-62 melanoma, 1.87 µM; with U251 CNS, 1.73 µM; in the assay with BT-549 breast it was 3.74 µM; with NCI/ADR-RES ovarian it was 2.34 µM; in the assay with NCI-H522 lung it was 2.34 µM. The GI50 in the assay on IGROV1 ovarian is 2.48 µM; in the assay on SF-268 CNS, 1.8 µM; in the assay with MOLT-4 leukemia, 1.86 µM. The TGI stood at 3.37 µM with HCT-116 colon; 3.93 µM in the assay on UACC-62 melanoma; 3.33 µM with U251 CNS; 15.5 µM in the assay on BT-549 breast; 5.78 µM in the assay with NCI/ADR-RES ovarian; 4.31 µM with NCI-H522 lung. Moreover, the TGI is 8.28 µM with IGROV1 ovarian, 3.93 µM in the assay with SF-268 CNS and 3.92 µM in the assay on MOLT-4 leukemia.
As for `N#Cc1c(N)nc(N2CCOCC2)c(C#N)c1-c1ccc(Cl)cc1`, the GI50 with HCT-116 colon is 65.1 µM; in the assay with SNB-19 CNS it was 28.1 µM; with UACC-62 melanoma, 23 µM; in the assay on U251 CNS, 38.3 µM; in the assay with BT-549 breast it was 32 µM; with NCI/ADR-RES ovarian, 23.6 µM. For the same compound, the GI50 in the assay on IGROV1 ovarian is 14 µM; in the assay on SF-268 CNS it was 61.7 µM; in the assay on MOLT-4 leukemia, 43.7 µM. The TGI was more than 100 µM in the assay with HCT-116 colon; more than 100 µM in the assay on SNB-19 CNS; more than 100 µM in the assay on UACC-62 melanoma; more than 100 µM in the assay on U251 CNS; more than 100 µM with BT-549 breast; 76.2 µM in the assay with NCI/ADR-RES ovarian. Further, the TGI with IGROV1 ovarian was 46.4 µM; with SF-268 CNS, more than 100 µM; with MOLT-4 leukemia, more than 100 µM.
Consider `Cn1ccc2c(c1=O)C(=O)c1nccc3c1c-2nc1ccccc13`, for which the GI50 is 1.35 µM with HCT-116 colon; 1.59 µM in the assay on SNB-19 CNS; 1.54 µM in the assay with UACC-62 melanoma; 1.38 µM with U251 CNS; 2.12 µM in the assay on BT-549 breast; 1.52 µM in the assay with IGROV1 ovarian. The GI50 in the assay with MOLT-4 leukemia is 2.26 µM. The TGI was 2.87 µM in the assay on HCT-116 colon; 3.03 µM with SNB-19 CNS; 2.93 µM in the assay on UACC-62 melanoma; 2.79 µM in the assay with U251 CNS; 4.77 µM with BT-549 breast; 3.87 µM in the assay with IGROV1 ovarian. Further, the TGI in the assay with MOLT-4 leukemia is 7.01 µM.
For `C[C@]12CC[C@@H]3c4ccc(O)cc4CC[C@H]3[C@@H]1CC[C@@H]2NS(=O)(=O)c1cccc(C(F)(F)F)c1`, the GI50 was 2.61 µM with HCT-116 colon; 4.64 µM in the assay with SNB-19 CNS; 2.66 µM with UACC-62 melanoma; 3.75 µM with U251 CNS; 2.7 µM in the assay with BT-549 breast; 3.73 µM in the assay on NCI/ADR-RES ovarian. Moreover, the GI50 was 5.19 µM with IGROV1 ovarian, 4.52 µM in the assay with SF-268 CNS and 3.2 µM in the assay with MOLT-4 leukemia. The TGI was 7.12 µM with HCT-116 colon; 18.2 µM in the assay with SNB-19 CNS; 10.7 µM in the assay on UACC-62 melanoma; 14.3 µM in the assay on U251 CNS; 7.48 µM in the assay with BT-549 breast; 16.9 µM in the assay with NCI/ADR-RES ovarian. For the same compound, the results for the TGI in the assay on IGROV1 ovarian, with SF-268 CNS and in the assay with MOLT-4 leukemia were 18 µM, 18.5 µM and 16.7 µM, respectively.
`CC(=O)NCCSC(=O)c1ccccc1`: the TGI was 0.275 µM with HCT-116 colon; 15.2 µM in the assay on SNB-19 CNS; 0.0786 µM in the assay with UACC-62 melanoma; 0.759 µM in the assay with U251 CNS; 3.75 µM with BT-549 breast; 0.688 µM in the assay on NCI/ADR-RES ovarian. For the same compound, the TGI in the assay with IGROV1 ovarian was more than 29.6 µM; in the assay on SF-268 CNS it was 2.02 µM; in the assay on MOLT-4 leukemia it was 0.0902 µM.
`C/C([O-])=C1\Cc2ccccc2C1=O.C/C([O-])=C1\Cc2ccccc2C1=O.CC[O-].CC[O-].[Ti+4]`: the GI50 in the assay on HCT-116 colon was 17.3 µM; in the assay on SNB-19 CNS, 17.4 µM; with UACC-62 melanoma it was 12.4 µM; with U251 CNS, 9.36 µM; in the assay on NCI/ADR-RES ovarian, 23.4 µM; in the assay on NCI-H522 lung, 14.2 µM. Further, the GI50 in the assay on IGROV1 ovarian is 8.46 µM; in the assay with SF-268 CNS, 17.1 µM; with MOLT-4 leukemia, 16.5 µM. Moreover, the TGI in the assay with HCT-116 colon was more than 61.3 µM; in the assay on SNB-19 CNS, 38.5 µM; in the assay with UACC-62 melanoma, 31.6 µM; in the assay on U251 CNS it was 26.2 µM; in the assay on NCI/ADR-RES ovarian it was more than 100 µM; with NCI-H522 lung it was 47.6 µM. Besides, the TGI with IGROV1 ovarian was 39.5 µM; in the assay with SF-268 CNS it was 47.3 µM; with MOLT-4 leukemia, more than 46.4 µM.
For the compound `O=C1CC(c2ccc3c(c2)OCO3)Nc2cc3c(cc21)OCO3` (centres undefined), the GI50 in the assay with HCT-116 colon was 1.27 µM; with SNB-19 CNS, 0.687 µM; with UACC-62 melanoma, 0.673 µM; in the assay on U251 CNS, 0.544 µM; with BT-549 breast, 3.24 µM; in the assay with NCI/ADR-RES ovarian, 0.372 µM. Also, the GI50 in the assay on NCI-H522 lung is 0.551 µM; in the assay on SF-268 CNS it was 0.83 µM; in the assay on MOLT-4 leukemia it was 0.56 µM. In addition, the TGI in the assay on HCT-116 colon was more than 100 µM; in the assay on SNB-19 CNS, more than 100 µM; in the assay on UACC-62 melanoma, more than 100 µM; in the assay on U251 CNS it was more than 100 µM; in the assay on BT-549 breast it was more than 100 µM; with NCI/ADR-RES ovarian, 83.4 µM. The TGI in the assay on NCI-H522 lung was 16.8 µM; with SF-268 CNS, more than 100 µM; in the assay with MOLT-4 leukemia, more than 100 µM.
Consider `COc1ccc(-c2cc(-c3ccccc3)nc(N3CCN(CCNc4ccnc5cc(Cl)ccc45)CC3)n2)cc1`, for which the GI50 in the assay with SNB-19 CNS is 3.19 µM; with UACC-62 melanoma, 3.48 µM; with U251 CNS, 1.56 µM; in the assay on BT-549 breast, 14.6 µM; in the assay with NCI/ADR-RES ovarian, 1.72 µM; in the assay on IGROV1 ovarian, 1.48 µM. The GI50 with SF-268 CNS is 1.75 µM. Also, the TGI was determined as 13.2 µM in the assay on SNB-19 CNS; 11.2 µM in the assay with UACC-62 melanoma; 3.45 µM in the assay with U251 CNS; 32.3 µM in the assay on BT-549 breast; 4.04 µM with NCI/ADR-RES ovarian; 3.19 µM in the assay with IGROV1 ovarian. The same compound showed a TGI with SF-268 CNS of 3.81 µM.
